# Results reported in patent US20260256792A1, “TREATMENT OF CHRONIC SPONTANEOUS URTICARIA BY ADMINISTERING (R)-2-[3-[4-AMINO-3-(2-FLUORO-4-PHENOXY-PHENYL)PYRAZOLO[3,4-D]PYRIMIDIN-1-YL]PIPERIDINE-1-CARBONYL]-4-METHYL-4-[4-(OXETAN-3-YL)PIPERAZIN-1-YL]PENT-2-ENENITRILE” (priority 2023, published 2026).
# Test system: moderate-to-severe chronic spontaneous urticaria (CSU)
# Experiment: Phase 2 CSU study: itch severity score over 7 days (ISS7)
# Type: in vivo, human
# Conditions: ITT population
# Text: The study comprises a 12 week, randomized, double-blind, placebo-controlled, multi-center, dose-ranging efficacy and safety phase, followed by a 40 week open label extension (OLE) phase (see FIG. 1). The study consists of three phases and an optional OLE phase. […] Clinically, CSU is characterized by the spontaneous and recurrent appearance of pruritic hives. The proposed primary endpoints were the UAS7 at Week 12 in EU and EU reference countries and the ISS7 in the US. Regardless of where a participant was from, all assessments were the same. The UAS7 score is a composite score containing both the HSS7 and the ISS7. This allowed a global assessment of the two key components of urticaria: hives and itch. […] The UAS is a validated PRO measure. […] The daily UAS scores range from 0 to 6 point/day. […] Patients were to complete the UAS using the e-diary. […] The following secondary endpoints were to be analyzed using the same approach as for the primary endpoint: • Change from baseline in UAS7 at Week 4 • Change from baseline in UAS7 at Week 12 (for US and US reference countries) • Change from baseline in ISS7 at Week 12 (except US and US reference countries) • Change from baseline in HSS7 at Week 12
smiles,measurement,setting,value
"CC(C)(C=C(C#N)C(=O)N1CCC[C@@H](n2nc(-c3ccc(Oc4ccccc4)cc3F)c3c(N)ncnc32)C1)N1CCN(C2COC2)CC1 [rilzabrutinib, (R)-2-[3-[4-amino-3-(2-fluoro-4-phenoxy-phenyl)pyrazolo[3,4-d]pyrimidin-1-yl]piperidine-1-carbonyl]-4-methyl-4-[4-(oxetan-3-yl)piperazin-1-yl]pent-2-enenitrile]",Non-responder n (%) (ISS7 reduction of 5 points or more),"400 mg QPM, Week 4",20 (52.6) n (%)
same,OR for rilzabrutinib vs. placebo (ISS7 reduction of 5 points or more),"400 mg QPM, Week 4",1.076
same,RRD (%) for rilzabrutinib vs. placebo (ISS7 reduction of 5 points or more),"400 mg QPM, Week 4",1.7%
same,Responder n (%) (ISS7 reduction of 5 points or more),"400 mg QPM, Week 4",18 (47.4) n (%)
same,Non-responder n (%) (ISS7 reduction of 5 points or more),"400 mg QPM, Week 6",20 (52.6) n (%)
same,OR for rilzabrutinib vs. placebo (ISS7 reduction of 5 points or more),"400 mg QPM, Week 6",1.066
same,RRD (%) for rilzabrutinib vs. placebo (ISS7 reduction of 5 points or more),"400 mg QPM, Week 6",1.5%
same,Responder n (%) (ISS7 reduction of 5 points or more),"400 mg QPM, Week 6",18 (47.4) n (%)
same,Imputed non-responder n (%) (ISS7 reduction of 5 points or more),"400 mg QPM, Week 7",6 (15.8) n (%)
same,Non-responder n (%) (ISS7 reduction of 5 points or more),"400 mg QPM, Week 7",19 (50.0) n (%)
same,OR for rilzabrutinib vs. placebo (ISS7 reduction of 5 points or more),"400 mg QPM, Week 7",1.138
same,RRD (%) for rilzabrutinib vs. placebo (ISS7 reduction of 5 points or more),"400 mg QPM, Week 7",3.1%
same,Responder n (%) (ISS7 reduction of 5 points or more),"400 mg QPM, Week 7",19 (50.0) n (%)
same,Imputed non-responder n (%) (ISS7 reduction of 5 points or more),"400 mg QPM, Week 8",7 (18.4) n (%)
same,Non-responder n (%) (ISS7 reduction of 5 points or more),"400 mg QPM, Week 8",20 (52.6) n (%)
same,OR for rilzabrutinib vs. placebo (ISS7 reduction of 5 points or more),"400 mg QPM, Week 8",0.836
same,RRD (%) for rilzabrutinib vs. placebo (ISS7 reduction of 5 points or more),"400 mg QPM, Week 8",−4.5%
same,Responder n (%) (ISS7 reduction of 5 points or more),"400 mg QPM, Week 8",18 (47.4) n (%)
same,Imputed non-responder n (%) (ISS7 reduction of 5 points or more),"400 mg QPM, Week 9",6 (15.8) n (%)
same,Non-responder n (%) (ISS7 reduction of 5 points or more),"400 mg QPM, Week 9",18 (47.4) n (%)
same,OR for rilzabrutinib vs. placebo (ISS7 reduction of 5 points or more),"400 mg QPM, Week 9",1.294
same,RRD (%) for rilzabrutinib vs. placebo (ISS7 reduction of 5 points or more),"400 mg QPM, Week 9",5.8%
same,Responder n (%) (ISS7 reduction of 5 points or more),"400 mg QPM, Week 9",20 (52.6) n (%)
same,Imputed non-responder n (%) (ISS7 reduction of 5 points or more),"400 mg QPM, Week 10",6 (15.8) n (%)
same,Non-responder n (%) (ISS7 reduction of 5 points or more),"400 mg QPM, Week 10",14 (36.8) n (%)
same,OR for rilzabrutinib vs. placebo (ISS7 reduction of 5 points or more),"400 mg QPM, Week 10",1.593
same,Responder n (%) (ISS7 reduction of 5 points or more),"400 mg QPM, Week 10",24 (63.2) n (%)
same,Imputed non-responder n (%) (ISS7 reduction of 5 points or more),"400 mg QPM, Week 11",7 (18.4) n (%)
same,Non-responder n (%) (ISS7 reduction of 5 points or more),"400 mg QPM, Week 11",17 (44.7) n (%)
same,OR for rilzabrutinib vs. placebo (ISS7 reduction of 5 points or more),"400 mg QPM, Week 11",0.938
same,RRD (%) for rilzabrutinib vs. placebo (ISS7 reduction of 5 points or more),"400 mg QPM, Week 11",−1.5%
same,Responder n (%) (ISS7 reduction of 5 points or more),"400 mg QPM, Week 11",21 (55.3) n (%)
same,Imputed non-responder n (%) (ISS7 reduction of 5 points or more),"400 mg QPM, Week 12",10 (26.3) n (%)
same,Non-responder n (%) (ISS7 reduction of 5 points or more),"400 mg QPM, Week 12",21 (55.3) n (%)
same,OR for rilzabrutinib vs. placebo (ISS7 reduction of 5 points or more),"400 mg QPM, Week 12",0.905
same,RRD (%) for rilzabrutinib vs. placebo (ISS7 reduction of 5 points or more),"400 mg QPM, Week 12",−2.6%
same,Responder n (%) (ISS7 reduction of 5 points or more),"400 mg QPM, Week 12",17 (44.7) n (%)
same,Imputed non-responder n (%) (ISS7 reduction of 5 points or more),"400 mg TID, Week 2",0 n (%)
same,Non-responder n (%) (ISS7 reduction of 5 points or more),"400 mg TID, Week 2",13 (31.7) n (%)
same,OR for rilzabrutinib vs. placebo (ISS7 reduction of 5 points or more),"400 mg TID, Week 2",4.772
same,RRD (%) for rilzabrutinib vs. placebo (ISS7 reduction of 5 points or more),"400 mg TID, Week 2",35.9%
same,Responder n (%) (ISS7 reduction of 5 points or more),"400 mg TID, Week 2",28 (68.3) n (%)
same,Imputed non-responder n (%) (ISS7 reduction of 5 points or more),"400 mg TID, Week 3",0 n (%)
same,Non-responder n (%) (ISS7 reduction of 5 points or more),"400 mg TID, Week 3",12 (29.3) n (%)
same,OR for rilzabrutinib vs. placebo (ISS7 reduction of 5 points or more),"400 mg TID, Week 3",4.110
